Laboratory results: patent US20120010262A1, “CRYSTALLINE POLYMORPHIC FORMS OF AN ANTIDIABETIC COMPOUND” (priority 2009, published 2012)

Assay: Solid-form stability of crystalline anhydrate Form II (conversion to Anhydrate III)
Type: physicochemical
Details: converts to crystalline Anhydrate III when heated to 160° C. for 1 hour or in solutions of ethanol, isoamyl alcohol and isopropyl acetate
Method: Anhydrate Form II is prepared from a solution of the crystalline hydrate form at a concentration of >100 mg/mL in acetonitrile. The solution is sonicated for approximately 5 minutes to induce crystallization. Anhydrate H is metastable. It converts to crystalline Anhydrate III when heated to 160° C. for 1 hour or in solutions of ethanol, isoamyl alcohol and isopropyl acetate. The X Ray Powder Diffraction peaks are shown below in Table 4.

## CCC[C@H](c1ccc(C(=O)NCCC(=O)O)cc1)[C@H](c1ccc(Cl)cc1)c1c[nH]c2c(F)cc(C)cc12 [Anhydrate H, N-(4-{(1S)-1-[(R)-(4-chlorophenyl)(7-fluoro-5-methyl-1H-indol-3-yl)methyl]butyl}benzoyl)-β-alanine]
  physical stability of the crystalline form: metastable
